Patent publication US20060217340A1, “Methods and products for treating hypertension by modulation of TRPC3 channel activity” (University of Vermont and State Agricultural College, priority 2005, published 2006)

Experiments:
[1] = test system: pressurized rat cerebral arteries; experiment: Arterial diameter recordings (constriction) in pressurized cerebral arteries; type: cell-based
Source text: (§1) Oligodeoxynucleotide Sequences and Reverse Permeabilization. TRPC6 sense and antisense oligodeoxynucleotides (ODN's) were designed as previously described (Welsh et al 2002 Circ Res 90, 248-250) and were as follows: sense, 5′-[…]-3′ (SEQ ID: 3) and 5′-GCACACGCAGCCTCTTCAC-3′ (SEQ ID: 4) antisense, 5′-[…]-3′ (SEQ ID: 5) and 5′-[…]-3′ (SEQ ID: 6). TRPC3 sense and antisense ODN's were designed based on the rat TRPC3 gene (Ohki et al 2000 J Biol Chem 275: 39055-39060) and are as follows: sense, 5′-[…]-3′ (SEQ ID: 7) and 5′-[…]-3′ (SEQ ID: 8); anti-sense, 5′-[…]-3′ (SEQ ID: 9) and 5′-[…]-3′ (SEQ ID: 10). The last five bases on the 5′ and 3′ end were phosphorothioated in order to limit ODN degradation. For some experiments fluoroscein-isothiocyanate was conjugated to the 5′ end to allow for histological assessment of cellular uptake of the ODNs. All ODNs were synthesized and HPLC purified commercially by Qiagen (Alameda, Calif., USA). Sense and antisense ODN's (2 μM) were introduced into the arterial SMs using a reversible permeabilization procedure (Lesh et al 1995 Circ Res 77,220-230)). The arterial segments were then organ cultured for 3 days in D-MEM/F-12 culture media with L-glutamine (2 mM), penicillin (50 units/ml) and streptomycin (50 μg/ml) prior to use.
Diameter and membrane potential recordings. Endothelial cell denuded artery segments were mounted on glass pipettes in an arteriograph chamber (Living Systems, Burlington, Vt., USA), pressurized to 20 mmHg (with no flow), and superfused with warm (37° C.), gassed (95% 02/5% CO2) physiological saline solution (PSS) containing (in mM): 119 NaCl, 4.7 KCl, 24 NaHCO3, 0.2 KH2PO4, […], 1.2 MgSO4, 1.6 CaCl2, and 10.6 glucose, pH 7.4. In experiments using Ca^2+-free PSS, CaCl2 was omitted and 3 mM EGTA and 30 μM diltiazem added. In experiments with diacylglycerol induction, 300 μM of the diacylglycerol analogue OAG (1-oleyol-2-acetyl-sn-glycerol) was added. The endothelium was removed as previously described (Sun et al 1993 Endothelium 1, 115-122). To verify endothelial cell removal the arteries were pressurized to 60 mmHg and allowed to develop myogenic tone prior to exposing the vessels to 1 μM UTP. Absence of a dilation or biphasic constrictor response to 1 μM UTP indicated successful endothelial cell removal (Marelli 2001 Am J Physiol Heart Cir Physiol 281, H1759-H1766; Miyagi et al 1996 Br J Pharmacol 118, 847-856). […] Membrane potential was measured by inserting a sharp glass electrode (≈100 MΩ resistance) containing 0.5M KCl into the vessel wall. The criteria for successful vascular smooth muscle cell impalement were: (1) a sharp negative Vm deflection on entry; (2) a stable potential for at least 1 minute after entry; and (3) a sharp positive Vm deflection upon removal. Measurements were made using an electrometer (World Precision Instruments) and the data were recorded via computer using Axotape and Dataq software. Arterial diameter was measured using a video dimension analyzer (IonOptix Corporation; Milton, Mass.).
Statistical analysis. Data are expressed as means±SEM, and n indicates the number of animals. Changes in arterial diameter were measured as a percent constriction calculated as follows: [formula]

[2] = test system: pressurized rat cerebral arteries; experiment: Arterial wall Ca2+ concentration measurement (FURA-2) in isolated arteries; type: cell-based; details: for effect on arterial wall Ca2+ or vessel diameter: absence of extracellular Ca2+
Method: Diameter and membrane potential recordings. […] In experiments using Ca^2+-free PSS, CaCl2 was omitted and 3 mM EGTA and 30 μM diltiazem added. In experiments with diacylglycerol induction, 300 μM of the diacylglycerol analogue OAG (1-oleyol-2-acetyl-sn-glycerol) was added. […] To verify endothelial cell removal the arteries were pressurized to 60 mmHg and allowed to develop myogenic tone prior to exposing the vessels to 1 μM UTP. […] Arterial diameter or membrane potential (Vm) of sense and anti-sense treated arteries was measured in the absence (control) or presence of UTP (concentration range: 0.1 to 10 μM). Membrane potential was measured by inserting a sharp glass electrode (≈100 MΩ resistance) containing 0.5M KCl into the vessel wall. […] Measurements were made using an electrometer (World Precision Instruments) and the data were recorded via computer using Axotape and Dataq software. Arterial diameter was measured using a video dimension analyzer (IonOptix Corporation; Milton, Mass.).
Ca^2+ concentration measurement in isolated arteries. Mounted arteries were equilibrated in 1.6 m M PSS for 40 minutes at 37° C. (pH 7.4) prior to loading the vascular smooth muscle cells with the Ca^2+-sensitive fluorescent dye, FURA-2. To load the cells, the 1.6 mM PSS was gradually replaced over 5 minutes with HEPES solution (25° C., pH 7.4). A total of 40 μL of a premixed 100 μM FURA-2-acetoxymethyl ester solution (100 μg FURA-2, 200 μL Pluronic acid, 800 μL DMSO) was added directly to the HEPES to give a final concentration of 2 μM FURA-2 AM. Loading continued in the dark at 25° C. (pH 7.4) for 40 minutes. At the end of the loading period, the HEPES was replaced with 1.6 mM PSS (35° C., pH 7.4) and 30 minutes was allowed for complete de-esterification of the FURA-2 AM before [Ca^2+]c measurements were made. FURA-2 fluorescence was measured using a photomultiplier system (IonOptix Corporation; Milton, Mass., USA) in which background-corrected ratios of the 510-nm emission from arteries alternatively excited at 340 and 380 nm were obtained at a sampling rate of 5 Hz.

cerebral artery SMCs = experiment: Membrane potential recordings in pressurized cerebral arteries; type: cell-based, rat
Source text: as §1
Diameter and membrane potential recordings. Endothelial cell denuded artery segments were mounted on glass pipettes in an arteriograph chamber (Living Systems, Burlington, Vt., USA), pressurized to 20 mmHg (with no flow), and superfused with warm (37° C.), gassed (95% 02/5% CO2) physiological saline solution (PSS) containing (in mM): 119 NaCl, 4.7 KCl, 24 NaHCO3, 0.2 KH2PO4, […], 1.2 MgSO4, 1.6 CaCl2, and 10.6 glucose, pH 7.4. In experiments using Ca^2+-free PSS, CaCl2 was omitted and 3 mM EGTA and 30 μM diltiazem added. In experiments with diacylglycerol induction, 300 μM of the diacylglycerol analogue OAG (1-oleyol-2-acetyl-sn-glycerol) was added. The endothelium was removed as previously described (Sun et al 1993 Endothelium 1, 115-122). To verify endothelial cell removal the arteries were pressurized to 60 mmHg and allowed to develop myogenic tone prior to exposing the vessels to 1 μM UTP. Absence of a dilation or biphasic constrictor response to 1 μM UTP indicated successful endothelial cell removal (Marelli 2001 Am J Physiol Heart Cir Physiol 281, H1759-H1766; Miyagi et al 1996 Br J Pharmacol 118, 847-856). Arterial diameter or membrane potential (Vm) of sense and anti-sense treated arteries was measured in the absence (control) or presence of UTP (concentration range: 0.1 to 10 μM). Membrane potential was measured by inserting a sharp glass electrode (≈100 MΩ resistance) containing 0.5M KCl into the vessel wall. The criteria for successful vascular smooth muscle cell impalement were: (1) a sharp negative Vm deflection on entry; (2) a stable potential for at least 1 minute after entry; and (3) a sharp positive Vm deflection upon removal. Measurements were made using an electrometer (World Precision Instruments) and the data were recorded via computer using Axotape and Dataq software. Arterial diameter was measured using a video dimension analyzer (IonOptix Corporation; Milton, Mass.).

[3] = 1 μM nimodipine, extracellular Ca2+ re-introduced in the presence of UTP
[4] = Gd3+ given prior to re-introduction of extracellular Ca2+
[5] = 2 μM thapsigargin, presence of UTP, n=3
[6] = OAG, Sprague Dawley, WKY and SHR rats
[7] = 30 μM UTP in PSS, first exposure
[8] = in the presence of UTP, steady state

Molecule: COCCOC(=O)C1=C(C)NC(C)=C(C(=O)OC(C)C)C1c1cccc([N+](=O)[O-])c1 (stereo not shown) [nimodipine]
- UTP-induced vasoconstriction [1, 3]: 29±3%
- UTP-induced increase in arterial wall Ca2+ [2, 3]: 94 ± 10 nM
- share of extracellular Ca2+ influx entering through the L-type Ca2+ channel ([2]; re-admission of Ca2+ in the presence of UTP): about 30%

Molecule: [Gd+3] [Gd^3+]
- effect on vasoconstriction after Ca2+ return in the presence of UTP ([1]; 30 μM Gd3+, nimodipine present): reverses
- vasoconstriction in response to UTP [1, 4]: nor did vasoconstriction occur
- effect on increase in arterial wall Ca2+ after Ca2+ return in the presence of UTP ([2]; 30 μM Gd3+, nimodipine present): reverses
- arterial wall Ca2+ response to UTP [2, 4]: did not increase

Molecule: 5′-GGAGTTCAGACTGGCTAGGG-3′ (SEQ ID: 5) and 5′-GCACACGCAGCCTCCTTCAC-3′ (SEQ ID: 6) (DNA, backbone not given here; further chemistry not fully specified) [TRPC6 antisense, TRPC6 antisense oligodeoxynucleotides designed as previously described (Welsh et al 2002)]
- UTP-induced depolarization, TRPC6 antisense- versus sense-treated group (cerebral artery SMCs; exposure to UTP): no difference
- magnitude of constriction ([1]; increasing concentrations of UTP): did not affect

Molecule: Cn1c(=O)c2c(ncn2C)n(C)c1=O [caffeine]
- % constriction ([1]; 10 mM caffeine, PSS containing Ca2+, transient): 31±6%
- peak [Ca2+]c ([2]; 10 mM caffeine, PSS containing Ca2+): 227 ± 42 nM
- effect on arterial wall Ca2+ or vessel diameter [2]: neither UTP (FIG. 11 and FIG. 12) nor caffeine (FIG. 11A) affected

Molecule: C/C=C(/C)C(=O)O[C@H]1C(C)=C2[C@H]([C@@H]1OC(=O)CCCCCCC)[C@@](C)(OC(C)=O)C[C@H](OC(=O)CCC)[C@@]1(O)[C@H]2OC(=O)[C@@]1(C)O [thapsigargin]
- diameter decrease when extracellular Ca2+ reintroduced [1, 5]: 39±6%
- arterial wall Ca2+ when extracellular Ca2+ reintroduced [2, 5]: 116 ± 29 nM

Molecule: CCCCCCCC/C=C\CCCCCCCC(=O)OC[C@H](CO)OC(C)=O [OAG, 1-oleoyl-2-acetyl-sn-glycerol]
- constriction of arteries from SHR compared with normotensive rats [1, 6]: significantly larger increases
- increase in calcium concentration, arteries from SHR compared with normotensive rats [2, 6]: significantly larger increases

Molecule: O=c1ccn([C@@H]2O[C@H](COP(=O)(O)OP(=O)(O)OP(=O)(O)O)[C@@H](O)[C@H]2O)c(=O)[nH]1 [UTP, uridine triphosphate]
- depolarization of arterial SMCs (cerebral artery SMCs; micromolar concentrations of UTP): approximately 20 mV
- sustained decrease in lumen diameter [1, 7]: 49±4%
- vessel response in Ca2+ free PSS ([1]; continued presence of UTP): completely relax
- decrease in lumen diameter (vasoconstriction) after returning extracellular Ca2+ [1, 8]: 48±5%
- initial peak increase in arterial wall Ca2+ ([2]; 30 μM UTP in PSS containing Ca2+, n=8): 291 ± 45 nM
- steady state arterial wall [Ca2+] [2, 7]: 145 ± 10 nM
- effect on arterial wall Ca2+ or vessel diameter [2]: neither UTP (FIG. 11 and FIG. 12) nor caffeine (FIG. 11A) affected
- arterial wall [Ca2+] in Ca2+ free PSS ([2]; continued presence of UTP): decline below the resting level
- arterial wall Ca2+ after returning extracellular Ca2+ [2, 8]: 139 ± 15 nM
